Experimental data reported in patent publication US20250075218A1, “HIF1A OR GLUT1 INHIBITION IN INFLAMMATORY SKIN DISEASES” (New York University, priority 2023, published 2025).

Experiments:
Assay type in all cases: in vivo, human
PsO patient = test: Clinical metadata of pre- and post-secukinumab-treated patient
Description: IL-17A blocking therapies are lauded for their clinical success, often achieving complete remission of skin plaques within 6 months of treatment (Ghoreschi et al., 2021). This remarkable clinical response provided a unique opportunity to examine if HIF1α levels normalize with successful therapy. Therefore, pre- and post-treatment biopsies were obtained from a secukinumab (anti-IL-17A) treated PsO patient who achieved complete clinical remission (Psoriatic Area and Severity Score (PASI) 100, or 100% psoriasis plaque clearance) (FIG. 3A and Table 1). Pre- and 12-weeks post-therapy biopsies from both lesional and non-lesional skin were taken <0.5 cm apart from the same patient, ensuring that post-treatment biopsies were taken from resolved lesions and not adjacent uninvolved skin (FIG. 8A).
Human skin samples. Following anesthetization with 2% lidocaine injection, 4 mm full-thickness punch biopsies were performed on lesional skin, and matched non-lesional skin located contralaterally. In healthy volunteers, skin biopsy samples were obtained from the trunk and/or extremities. Post-therapy biopsies from secukinumab-treated patients were taken 5 to 10 mm away from the original biopsy site within the original lesion area, discerned by hyperpigmentation, and at contralateral non-lesional skin.

[1] = tested on: HIF1A, IL17RA, and IL17RC; test: Spatial transcriptomics of pre- and post-secukinumab lesional and non-lesional skin; conditions: following therapy, 12 weeks; one patient
Description: IL-17A blocking therapies are lauded for their clinical success, often achieving complete remission of skin plaques within 6 months of treatment (Ghoreschi et al., 2021). This remarkable clinical response provided a unique opportunity to examine if HIF1α levels normalize with successful therapy. Therefore, pre- and post-treatment biopsies were obtained from a secukinumab (anti-IL-17A) treated PsO patient who achieved complete clinical remission (Psoriatic Area and Severity Score (PASI) 100, or 100% psoriasis plaque clearance) (FIG. 3A and Table 1). […]
When compared to contralateral non-lesional skin, the PsO lesion was enriched for HIF1A, IL17RA, and IL17RC (FIGS. 3B and 8H). […] As a complementary analysis, HIF1α protein expression was measured in a cohort of 10 patients treated with etanercept (anti-TNFα) that achieved response (PASI 75 or greater) at 12 weeks (Table 2) (Stinco et al., 2019). […]
Spatial transcriptomics. […] Spot selection and image alignment: Following probe cleavage, fluorescent images were taken on a Hamamatsu NanoZoomer whole slide fluorescence scanner. […] The Space Ranger mkfastq function was used for sample demultiplexing and converting spatial barcodes and reads into FASTQ format. […]

[2] = tested on: HIF1α-inhibitor downregulated gene signature; test: Transcriptional program response analyses to clinical trial data (GSVA, NCT01537432); conditions: baseline and 1, 4, 12 weeks of secukinumab or placebo
Description: The dramatic transcriptional response following BAY 87-2243 treatment prompted investigation of the role of HIF1α-modulated genes on PsO disease pathogenesis. Toward this end, HIF1α-modulated genes were projected onto a longitudinal analysis of the transcriptional response from 33 patients following either placebo (9 patients) or anti-IL-17A blocking (secukinumab) therapy (24 patients) (NCT01537432) (Krueger et al., 2019).
Transcriptional program response analyses to clinical trial data. Scoring methods: To evaluate if gene signatures derived from differential gene expression in human biopsy cultures or topical HIF1α inhibitor treatment in IMQ-treated murine model would be affected by anti-IL17 treatment, the genes down regulated by HIF1α inhibitor (HIF1α-signature) were projected into the longitudinal gene expression profiles of 31 psoriasis patients enrolled in a randomized clinical trial testing the efficacy of Secukinumab 300 mgs (n=22) versus Placebo (n=9) (Krueger et al., 2019). The overall expression/activity of the signatures was estimated using gene set variation analysis (GSVA). GSVA, a non-parametric and non-supervised method, estimated a sample-wise enrichment score for each gene set on the RCT cohorts. Such enrichment scores, representing overall gene set activity, were then modeled to evaluate the treatment effect and the association with treatment response. […]

[3] = post-treatment, 12 weeks, one patient (ST-15), pre-treatment value 5

Q: secukinumab was tested. Which “psoriasis plaque clearance (PASI 100, complete clinical remission)” value (PsO patient; one secukinumab-treated PsO patient) did it give?
A: The value was 100%.

Q: What about the “Body surface area (BSA) with psoriasis (%)” value (PsO patient; post-treatment, 12 weeks post-therapy, one patient (ST-15; AL and ANL samples), pre-treatment value 8) of the same substance?
A: Its value is 0%.

Q: And the Deformity (PsO patient; post-treatment, 12 weeks, one patient (ST-15), pre-treatment value 0)?
A: The Deformity was 0.

Q: What about the Enthesitis (PsO patient; post-treatment, 12 weeks, one patient (ST-15), pre-treatment value 1) of the same substance?
A: Its Enthesitis is 0.

Q: And the Dactylitis (PsO patient; post-treatment, 12 weeks, one patient (ST-15), pre-treatment value 4)?
A: The Dactylitis was 0.

Q: What about the PASI (PsO patient; [3]) of the same substance?
A: Its PASI is 0.

Q: And the “Phys GA (global)” value (PsO patient; [3])?
A: The value was 1.

Q: What about the “Swollen joint count (SJC)” value (PsO patient; post-treatment, 12 weeks, one patient (ST-15), pre-treatment value 11) of the same substance?
A: Its value is 0.

Q: And the “Tender joint count (TJC)” value (PsO patient; post-treatment, 12 weeks, one patient (ST-15), pre-treatment value 12)?
A: The value was 0.

Q: And the “expression of HIF1A, IL17RA, and IL17RC in resolved skin (post-treatment L)” value [1]?
A: The value was “comparable to that of non-lesional skin”.

Q: What about the “GSVA score of gene signature downregulated by HIF1α inhibitor, treatment group vs placebo” value [2] of the same substance?
A: Its value is “significantly distinguished”.
